Source: the supplement of paper PMC10307832

Legend:
Assay in all cases: relative viability (nuclei count vs DMSO), 5 days (fraction); higher = more cells survive
Lapatinib + Trametinib = compound: CS(=O)(=O)CCNCc1ccc(-c2ccc3ncnc(Nc4ccc(OCc5cccc(F)c5)c(Cl)c4)c3c2)o1 [Lapatinib] + CC(=O)Nc1cccc(-n2c(=O)n(C3CC3)c(=O)c3c(Nc4ccc(I)cc4F)n(C)c(=O)c(C)c32)c1 [Trametinib] (partner 0.02 µM)
In short: (§1)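 Lung cancer cell lines were seeded in 1536-well plates and dosed by pin tool the next day, with either a single drug or a fixed anchor-drug dose combined with five library-drug doses (not always all listed) spaced in √10 steps. Five days later, one step fixed the cells and stained their nuclei (final 0.05% Triton X-100, 1% formaldehyde, 1 ug/ml Hoechst), and nuclei were counted on 4× images. Relative viability is the nuclei count in treated wells divided by the count in vehicle wells, and each value is the median of duplicate plates.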

Wnt-C59 + Phenformin = compound: CC1=NC=CC(=C1)C2=CC=C(C=C2)CC(=O)NC3=CC=C(C=C3)C4=CN=CC=C4 [Wnt-C59] + N=C(N)NC(=N)NCCc1ccccc1 [Phenformin] (partner 250 µM)
In short: as §1

Lapatinib + Palbociclib = compound: CS(=O)(=O)CCNCc1ccc(-c2ccc3ncnc(Nc4ccc(OCc5cccc(F)c5)c(Cl)c4)c3c2)o1 [Lapatinib] + CC(=O)c1c(C)c2cnc(Nc3ccc(N4CCNCC4)cn3)nc2n(C2CCCC2)c1=O [Palbociclib] (partner 0.5 µM)
In short: as §1

Wnt-C59 + Decitabine = compound: CC1=NC=CC(=C1)C2=CC=C(C=C2)CC(=O)NC3=CC=C(C=C3)C4=CN=CC=C4 [Wnt-C59] + Nc1ncn([C@H]2C[C@H](O)[C@@H](CO)O2)c(=O)n1 [Decitabine] (partner 2 µM)
In short: as §1

Cell Line: UMC-11
- relative viability (Lapatinib + Trametinib; first compound 0.02 µM): 0.293
- relative viability (Lapatinib + Trametinib; first compound 0.06325 µM): 0.617
- relative viability (Lapatinib + Trametinib; first compound 0.2 µM): 0.69
- relative viability (Lapatinib + Trametinib; first compound 0.6325 µM): 0.76
- relative viability (Lapatinib + Trametinib; first compound 2 µM): 0.676
- relative viability (Wnt-C59 + Phenformin; first compound 0.001 µM): 0.305
- relative viability (Wnt-C59 + Phenformin; first compound 0.01 µM): 0.282
- relative viability (Wnt-C59 + Phenformin; first compound 0.03162 µM): 0.328
- relative viability (Wnt-C59 + Phenformin; first compound 0.1 µM): 0.32
- relative viability (Lapatinib + Palbociclib; first compound 0.02 µM): 0.391
- relative viability (Lapatinib + Palbociclib; first compound 0.06325 µM): 0.347
- relative viability (Lapatinib + Palbociclib; first compound 0.2 µM): 0.301
- relative viability (Lapatinib + Palbociclib; first compound 0.6325 µM): 0.282
- relative viability (Lapatinib + Palbociclib; first compound 2 µM): 0.27
- relative viability (Wnt-C59 + Decitabine; first compound 0.001 µM): 0.572
- relative viability (Wnt-C59 + Decitabine; first compound 0.01 µM): 0.607
- relative viability (Wnt-C59 + Decitabine; first compound 0.03162 µM): 0.559
- relative viability (Wnt-C59 + Decitabine; first compound 0.1 µM): 0.72
